Measured values published in article PMC8776094, “Reactive Oxygen Species Production Is Responsible for Antineoplastic Activity of Osmium, Ruthenium, Iridium and Rhodium Half-Sandwich Type Complexes with Bidentate Glycosyl Heterocyclic Ligands in Various Cancer Cell Models” (International Journal of Molecular Sciences, 2022).
“Also recorded” adds a separate entry of the source.

What was measured:
Assay type in all cases: cell-based
[1] = test system: Capan2, a pancreatic adenocarcinoma cell line; assay: SRB assay, 48 h, cytostasis, Capan2; details: for IC50 / Capan2 Max. Inh. (%): SRB assay; for Capan2 Max. Inh. (%): ND = not detected
From the text: We turned next to assessing whether the cytostatic activity of Os-3, Os-4, Os-5, Os-6 and Ir-6 complexes is specific for ovarian cancer cell lines or if they may be active on other cell lines. To that end, we tested the complexes on another carcinoma cell line (Capan2, a pancreatic adenocarcinoma cell line), on a sarcoma cell line (Saos, an osteosarcoma cell line) and on a lymphoma cell line (L428, a Hodgkin’s lymphoma cell line).
Capan2 cells were maintained in MEM, 10% fetal bovine serum, 1% penicillin/streptomycin, and 2 mM glutamine.
(§1) The assay was performed similarly to the method used in [73]. Cells were seeded in 96-well plates the day before the assay. Cells were treated with the compounds for 48 h, with the exception of L428, where 96 h of treatment was applied. Cells were fixed with 10% trichloroacetic acid (TCA). Fixed cells were washed in distilled water 3 times, followed by staining with SRB (0.4 m/V% dissolved in 1% acetic acid) for 10 min. The stained cells were washed in 1% acetic acid 5 times; the acetic acid was removed, and the cells were left to dry. Protein-bound SRB was released by adding 100 µL 10 mM Tris base. Plates were measured in a plate photometer (Thermo Scientific Multiscan GO spectrophotometer, Waltham, MA, USA) at 540 nm. On each plate, wells were designed to contain untreated cells. In calculations, the readings for these wells were considered as 1 and all readings were expressed relative to these values.
(§2) Statistical analysis was performed using the 8.0.1 version of Graphpad Prism. Values were tested for normal distribution, using the d’Agostino and Pearson normality test. When necessary, values were log-normalized or were normalized using the Box-Cox normalization method or using a two-step transformation, as indicated in the figure captions. Nonlinear regression was performed using the built-in “[Inhibitor] vs. Response—Variable slope (four parameters), least-square fit” utility of Graphpad, yielding the IC50 and Hill slope values.
Here, 1.5 × 10^3 Capan2, 3 × 10^3 Saos cells and 10^4 L428 cells were plated onto 96-well plates. Capan2 and Saos cells were treated with the compounds in the concentrations indicated for 48 h for an SRB assay. L428 cells were treated with the compounds in the concentrations indicated for 96 h, then cells were counted using conventional microscopy and a Burker chamber. Data are represented as average ± SD, from three biological replicates; individual assays were performed in duplicate. Values were normalized for vehicle-treated cells; the absorbance for vehicle-treated cells is equal to 1. A one-way ANOVA, followed by a Kruskal–Wallis test, was performed individually for each compound. The results of the statistical analysis are presented in an Excel spreadsheet at https://figshare.com/s/28d14597d5041f08eb08 (accessed on 6 January 2022). Nonlinear regression was performed on the data.

[2] = test system: A2780 ovarian cancer cells; assay: SRB assay, 48 h, cytostasis, A2780; details: for cytostatic activity on A2780 cells in SRB assay (in words): 48 h treatment; for IC50 / A2780 Max. Inh. (%): SRB assay, 48 h; for A2780 Max. Inh. (%): ND = not detected
Protocol: (§3) The compounds were tested between 0.001694 and 33.3333 µM, using a 4-hour-long MTT test to assess rapid toxicity and a 48-hour-long SRB assay to assess the long-term effects of the inhibition of proliferation (cytostasis). The MTT assay assesses the activity of mitochondrial complex I and detects rapid, direct toxicity, as well as indicating apoptosis and necrosis. The SRB assay measures the total protein content that is proportional to cell numbers; therefore, the assay can detect changes in cell numbers and can thus be used as a readout for cell proliferation. The SRB assay was performed after 48 h of treatment (with the exception of L428 cells, which were tested for 96 h due to their slower proliferation rate). In this setting, the SRB assay informs us of long-term changes to cell proliferation. We assessed the maximal inhibition within that concentration range, and descriptive statistics were performed. We performed a one-way ANOVA, followed by the Kruskal–Wallis test, regardless of the normal or non-normal distribution of the data. Due to the large number of significance values, the results of the significance calculations are provided in an Excel spreadsheet at https://figshare.com/s/28d14597d5041f08eb08 (accessed on 6 January 2022), among other primary data of the study. Where possible, nonlinear regression was performed on the curves to determine the IC50 values ((inhibitor) vs. response—variable slope (four parameters) method with Graphpad v8.0.1). […] In Table 5, we added the IC50 values that we determined for a set of 4 active ruthenium half-sandwich complexes we identified previously, to be used in subsequent structure-activity relationship (SAR) analyses.
A2780 cells were cultured in RMPI 1640 medium, supplemented with 10% fetal calf serum, 2 mM glutamine, and 1% penicillin-streptomycin.
as §1, §2

[3] = test system: ID8 ovarian cancer cell line; assay: MTT reduction assay, 4 h, rapid toxicity, ID8; details: 4 h treatment; for Maximum Inhibition (%) ID8: MTT assay, ND = not detected or cannot be calculated
Protocol: as §3
ID8 cells were cultured in a high-glucose DMEM (4.5 g/L glucose) medium, supplemented with 4% fetal calf serum, 2 mM glutamine, 1% penicillin-streptomycin, and 1% ITS supplement (I3146).
The MTT reduction assay measures the activity of mitochondrial complex I and can be used to detect apoptosis and necrosis. The assay was performed similarly to the method used in [72]. Briefly, cells were plated in 96-well plates the day before the assay. Cells were treated with the compounds for 4 h, then MTT was added at 0.5 mg/mL final concentration and the cells were incubated at 37 °C in a cell incubator. The culture media were removed and the reduced MTT dye was dissolved in dimethyl-sulfoxide (DMSO) and plates were measured in a plate photometer (Thermo Scientific Multiscan GO spectrophotometer, Waltham, MA, USA) at 540 nm. On each plate, wells were designed to contain untreated/vehicle-treated cells. In the calculations, the readings for these wells were considered as 1 and all readings were expressed relative to these values.

[4] = test system: A2780 cells; assay: SRB assay with or without 1 mM vitamin E co-treatment; details: 48 h SRB
Protocol: To assess the causative role of oxidative stress in cytostasis induced by the compounds we identified in this study, we co-treated cells with the compounds and with vitamin E, a lipophilic antioxidant.
as §1
Figure 10 Assessment of selected Os(II) and Ir(III) complexes (Os-3‒Os-6, Ir-6) for cytostatic activity. Here, 1.5 × 10^3 A2780 cells were plated onto 96-well plates. Cells were treated with the compounds in the concentrations indicated for 48 h for an SRB assay with or without 1 mM vitamin E. Data are represented as average ± SD, from three biological replicates; individual assays were performed in duplicate. Values were normalized for vehicle-treated cells. Absorbance for vehicle-treated cells is equal to 1. Normality was assessed using the d’Agostino and Pearson test. Os-3, Os-4, Os-6, Ir-6 data had normal distribution, while in Os-5, normality was achieved using the Box-Cox normalization method. Statistical difference was assessed using a two-way ANOVA test; all measurement points were compared with each other. *, ** and *** indicate statistically significant differences between vehicle-treated (control) cells and those treated with a compound but not with vitamin E, at p < 0.05 and p < 0.001, respectively. #, ##, and ### indicate statistically significant differences between vehicle-treated (no Vitamin E) and the cells treated with a Vitamin E at p < 0.05, p < 0.01 and p < 0.001, respectively. !, !!, and !!! indicate statistically significant differences between vitamin E and vehicle-treated cells (control) and the cells treated with vitamin E and a compound at p < 0.05, p < 0.01 and p < 0.001, respectively.

Row | Compound | cytostatic activity on Capan2 cells (in words) [1] | IC50 [1] [µM] | Capan2 Max. Inh. (%) [1] [%] | cytostatic activity on A2780 cells in SRB assay (in words) [2] | IC50 [2] [µM] | A2780 Max. Inh. (%) [2] [%] | cytotoxicity on ID8 cells, MTT assay (in words) [3] | Maximum Inhibition (%) ID8 [3] [%] | effect of vitamin E on the cytostatic properties of the complex [4]
1 | Cc1ccc(C(C)C)cc1.F[P-](F)(F)(F)(F)F.O=C(OC1COC(c2nnc(-c3ccccn3)o2)C(OC(=O)c2ccccc2)C1OC(=O)c1ccccc1)c1ccccc1.[Cl][Os+] (mixture of isomers) [Os-5] | active on all cell lines | 8.89 | 100 | exerted cytostatic activity | 2.81 | 100 | cytotoxic capacity to a greater extent than on A2780 cells | 59.51 | potently inhibited by vitamin E
2 | Cc1ccc(C(C)C)cc1.F[P-](F)(F)(F)(F)F.O=C(OCC1OC(n2cc(-c3ccccn3)nn2)C(OC(=O)c2ccccc2)C(OC(=O)c2ccccc2)C1OC(=O)c1ccccc1)c1ccccc1.[Cl][Os+] (mixture of isomers) [Os-6] | active on all cell lines | 1.71 | 100 | exerted cytostatic activity | 0.7 | 100 | cytotoxic capacity to a greater extent than on A2780 cells | 64.44 | potently inhibited by vitamin E
3 | Cc1ccc(C(C)C)cc1.F[P-](F)(F)(F)(F)F.O=C(OCC1OC(c2nnc(-c3ccccn3)o2)C(OC(=O)c2ccccc2)C(OC(=O)c2ccccc2)C1OC(=O)c1ccccc1)c1ccccc1.[Cl][Os+] (mixture of isomers) [Os-3] | active on all cell lines | 8.8 | 100 | exerted cytostatic activity | 2.52 | 100 | cytotoxic capacity to a greater extent than on A2780 cells | 35.24 | potently inhibited by vitamin E
4 | Cc1c(C)c(C)[c-](C)c1C.F[P-](F)(F)(F)(F)F.O=C(OCC1OC(n2cc(-c3ccccn3)nn2)C(OC(=O)c2ccccc2)C(OC(=O)c2ccccc2)C1OC(=O)c1ccccc1)c1ccccc1.[Cl][Ir+2] (mixture of isomers) [Ir-6] | active on all cell lines | 4.15 | 100 | pronounced; also recorded: displayed cytostatic activity | 1.64 | 100 | mild cytotoxicity | 62.71 | potently inhibited by vitamin E
5 | Cc1ccc(C(C)C)cc1.F[P-](F)(F)(F)(F)F.O=C(OCC1OC(c2nnc(-c3ccccn3)o2)C(OC(=O)c2ccccc2)C(OC(=O)c2ccccc2)C1OC(=O)c1ccccc1)c1ccccc1.[Cl][Os+] (mixture of isomers) [Os-4] | active on all cell lines | 6.2 | 100 | exerted cytostatic activity | 3.23 | 100 |  | 22.91 | potently inhibited by vitamin E
